Holding throughout (experiment): NCI tumour cell line growth inhibition, 48 h
Experiment [1] deals with 786-0 renal.
The test system of experiment [2] is A549 NSCLC.
In experiment [3] the test system is ACHN renal.
In experiment [4] the test system is EKVX NSCLC.
Experiment [5] deals with IGROV1 ovarian.
In experiment [6] the test system is NCI-H226 lung.
For experiment [7], the system named is NCI-H23 lung.
The subject of experiment [8] is SF-295 CNS.
The subject of experiment [9] is SN12C renal.
For experiment [10], the system named is SNB-19 CNS.

The structures appear in SMILES notation. “And” between values parts separate entries of the source, which are not always exact repeats. Equal values may be shown once.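 Assay format: 96-well plates, 48-hour exposure. GI50 is the concentration that inhibits growth by half. The concentration for full growth arrest is given as TGI.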 Bounds are passed on as bounds.

As for `COc1ccc(-c2nn3ncccc3c2-c2ccnc(Nc3ccc4c(c3)OCCO4)n2)cc1`, the GI50 is 8.38 µM in experiment [1]; 8.41 µM in experiment [2]; 2.86 µM in experiment [3]; 9.61 µM in [4]; 2.17 µM in [5]; 5.51 µM in experiment [6]. Also, the GI50 in experiment [7] was 9.22 µM; in experiment [8], above 17.2 µM; in experiment [9] it was 6.5 µM; in experiment [10], 16.3 µM. Besides, the TGI in experiment [1] is above 25 µM; in experiment [2] it was above 25 µM; in experiment [3], above 25 µM; in [4], above 25 µM; in experiment [5], above 19.6 µM; in experiment [6], above 25 µM. Further, the TGI in experiment [7], in [8], in experiment [9] and in experiment [10] was above 25 µM each time.

As to `O=C1C=C(Nc2ccc(S(=O)(=O)Nc3ncccn3)cc2)c2ccccc2C1=O`, the TGI in experiment [1] amounted to 45.6 µM; in [2], 57.9 µM; in experiment [3], 70.4 µM; in [4], 67.1 µM; in experiment [5] it was 58 µM; in experiment [6], 56.8 µM. Also, the TGI in experiment [7] came to 34.1 µM; in [8] it was 35 µM; in [9] it was 35.9 µM; in [10], 90.2 µM.

As to `NC(CSC(c1ccccc1)(c1ccccc1)c1ccc(F)cc1)C(=O)O` (configuration not stated), the GI50 in experiment [1] is 2.92 µM; in [2] it was 0.35 µM; in experiment [3], 5.04 µM; in experiment [4] it was 0.525 µM; in experiment [5] it was 0.856 µM; in [6] it was 5.64 µM. For the same molecule, the GI50 in experiment [7] was 0.657 µM; in experiment [8], 0.346 µM; in experiment [9], 0.564 µM; in experiment [10], 0.458 µM. For the same molecule, the TGI in [1] was above 78.9 µM; in experiment [2], above 31.7 µM; in experiment [3] it was above 100 µM; in [4] it was above 74.2 µM; in experiment [5], above 100 µM; in experiment [6], above 76.3 µM. Also, the TGI is above 28.3 µM in experiment [7], 13 µM in [8], above 70.7 µM in experiment [9] and above 47.4 µM in experiment [10].

`CCCCCCCCCCOC(=O)c1cc[n+](C)cc1`: the TGI is 31.7 µM in experiment [1]; 31 µM in experiment [2]; 33.2 µM in experiment [3]; 30.5 µM in [4]; 30.4 µM in [5]; 32.7 µM in experiment [6]. For the same molecule, the TGI in experiment [7] was 35 µM; in [8], 30.3 µM; in experiment [9], 30.7 µM; in experiment [10] it was 30.4 µM.

Take `C/C(CC(=O)Nc1ccc(NC(=O)C/C(C)=N\NC(N)=O)cc1)=N/NC(N)=O`: the TGI in experiment [1], in [2], in [3], in experiment [4], in experiment [5] and in experiment [6] was above 100 µM in each case. In addition, the TGI in [7], in experiment [8], in experiment [9] and in experiment [10] was above 100 µM in each case.

Take `CNCCCNc1c2ccccc2nc2cccc([N+](=O)[O-])c12`: the TGI in experiment [1] is 0.0247 µM; in [2] it was 0.00587 µM and 0.0106 µM; in [3] it was 0.0152 µM; in experiment [4] it was 0.0226 µM and 0.0389 µM; in experiment [5], 0.0201 µM and 0.0279 µM; in experiment [6] it was 0.0521 µM. Also, the TGI in experiment [7] was 0.00564 µM; in experiment [8] it was 0.0279 µM; in experiment [9] it was < 0.0318 µM and 0.0181 µM; in experiment [10] it was 0.0309 µM and 0.13 µM.

In the case of `C=C(CN1c2ccccc2Sc2ccccc21)c1ccc(C(=O)Nc2ccccc2N)cc1`, the GI50 in experiment [1] was 0.832 µM; in [2], 11.4 µM; in [3], above 71.7 µM; in experiment [4], above 86 µM; in experiment [5], 28.1 µM; in experiment [6], 8.53 µM. In addition, the GI50 is above 100 µM in experiment [7], above 38.3 µM in experiment [8], 8.07 µM in experiment [9] and above 54.3 µM in experiment [10]. Also, the TGI in experiment [1], in experiment [2], in experiment [3], in [4], in experiment [5] and in experiment [6] was above 100 µM each time. Besides, the TGI in experiment [7], in [8], in experiment [9] and in experiment [10] was above 100 µM in each case.

Take `CCc1nn2ncccc2c1-c1ccnc(NC2CC2)n1`: the GI50 in experiment [1] was above 25 µM; in [2], above 25 µM; in [3], above 25 µM; in experiment [4] it was above 25 µM; in experiment [5], above 25 µM; in experiment [6] it was 20.2 µM. Also, the GI50 in experiment [7], in experiment [8], in experiment [9] and in experiment [10] was above 25 µM each time. The TGI in [1], in experiment [2], in [3], in [4], in [5] and in [6] was above 25 µM in each case. The TGI in experiment [7], in experiment [8], in [9] and in experiment [10] was above 25 µM each time.

Turning to `CC[C@@H](O)C[C@H]1CCC[C@@]2(C[C@@H]3OC(=O)/C=C/[C@@](C)(O)[C@@H](O)[C@H](C)[C@@H](O)[C@H](OC4CCC(N(C)C)C(C)O4)[C@@H](O)[C@](C)(O)CCCCC/C=C/[C@@H]4CC(C)(C)O[C@@]4(O)C[C@H](O2)[C@H]3C)O1` (some centres not stated), the TGI in experiment [1] was 34.1 µM; in experiment [2], 20.5 µM; in [3], 17.6 µM; in [4], 19.1 µM; in experiment [5], 21.8 µM; in experiment [6] it was 29.6 µM. The TGI came to 18.2 µM in experiment [7], 21.6 µM in experiment [8], 37.1 µM in experiment [9] and 20.6 µM in experiment [10].

Turning to `COc1ccc2[nH]c(C(=O)OCc3ccc4cccc(O)c4n3)cc2c1`, the GI50 is 1.68 µM in experiment [1]; 1.81 µM in [2]; 0.69 µM in [3]; 1.51 µM in experiment [4]; 0.751 µM in [5]; 1.4 µM in experiment [6]. Besides, the GI50 was 1.44 µM in [7], 4.98 µM in experiment [8], 1.18 µM in experiment [9] and 2.83 µM in [10]. The TGI worked out at 3.31 µM in experiment [1]; 3.92 µM in experiment [2]; 1.98 µM in [3]; 2.89 µM in experiment [4]; 2.08 µM in [5]; 3.14 µM in experiment [6]. Further, the TGI in experiment [7] worked out at 3.07 µM; in [8], 18.1 µM; in experiment [9], 2.54 µM; in experiment [10], 11.2 µM.

Consider `COC(=O)CC(C(C(C)=O)C(=O)OCc1ccccc1)N1C(=O)OC(c2ccccc2)C1c1ccccc1` (configuration not stated), for which the TGI is above 100 µM in experiment [1]; above 100 µM in experiment [2]; above 100 µM in [3]; above 100 µM in experiment [4]; above 100 µM in experiment [5]; 80.7 µM and > 100 µM in experiment [6]. In addition, the TGI is above 100 µM in experiment [7]; 75.4 µM and > 100 µM in experiment [8]; above 100 µM in experiment [9]; 91.7 µM and > 100 µM in experiment [10]. In addition, the GI50 in [6] was 12.2 µM and 77.5 µM; in [10] it was 10.5 µM and > 100 µM.

Regarding `Cc1ccc(O)c(NC2=C(Cl)C(=O)N(Cc3ccccc3)C2=O)c1`, the GI50 is 29.6 µM in experiment [1]; 27.1 µM in [2]; 32.4 µM in [3]; 35.9 µM in [4]; 6.44 µM in experiment [5]; 15 µM in experiment [6]. Moreover, the GI50 in [7] was 25.8 µM; in experiment [8], 26.2 µM; in experiment [9], 14.9 µM; in experiment [10], 46 µM. The TGI in [1] was 86.1 µM; in experiment [2] it was 91.3 µM; in [3], above 100 µM; in experiment [4], above 100 µM; in [5], 24.2 µM; in [6], 37.3 µM. Further, the TGI in experiment [7] was 68.6 µM; in experiment [8], 71.2 µM; in experiment [9] it was 32.7 µM; in [10], above 100 µM.

In the case of `C1CC2=C(C1)C1=S(S2)SC2=C1CCC2`, the TGI in experiment [1], in [2], in [3], in experiment [4], in experiment [5] and in experiment [6] was above 100 µM each time. Besides, the TGI in experiment [7], in [8], in [9] and in experiment [10] was above 100 µM each time.

On to `OC(COc1ccccc1)CN1CCCCC1` (configuration not stated), for which the TGI in [1], in experiment [2], in experiment [3], in experiment [4], in experiment [5] and in experiment [6] was above 100 µM each time. In addition, the TGI in experiment [7], in [8], in experiment [9] and in experiment [10] was above 100 µM throughout.

Regarding `COc1ccc2nc3cccc([N+](=O)[O-])c3c(NCCNCCN(C)C)c2c1`, the GI50 in experiment [1] is 0.0429 µM; in experiment [2] it was 0.0712 µM; in [3] it was 0.0414 µM; in experiment [4] it was 0.261 µM; in [5], 0.0195 µM; in experiment [6] it was 0.219 µM. For the same molecule, the GI50 in experiment [7] was 1.72 µM; in [8] it was 0.0626 µM; in [9], 0.141 µM; in experiment [10] it was 0.223 µM. For the same molecule, the TGI turned out to be 0.164 µM in experiment [1]; 0.518 µM in experiment [2]; 0.439 µM in [3]; 1.43 µM in [4]; 0.136 µM in [5]; 0.629 µM in experiment [6]. The TGI in experiment [7] is 5.26 µM; in experiment [8], 0.696 µM; in experiment [9], 0.592 µM; in experiment [10] it was 1.17 µM.

As to `CCC[CH2][Sn]([CH2]CCC)([O]C(=O)c1cccc(F)c1F)[O]C(=O)c1cccc(F)c1F`, the GI50 was 1.05 µM in experiment [1]; 5.37 µM in experiment [2]; 1.28 µM in [3]; 1.41 µM in experiment [4]; 1.4 µM in [5]; 1.25 µM in experiment [6]. Further, the GI50 in [7] was 0.614 µM; in experiment [8] it was 1.52 µM; in experiment [9], 1.19 µM; in [10] it was 1.48 µM. Also, the TGI in experiment [1] is 2.22 µM; in experiment [2], 17.5 µM; in experiment [3] it was 2.55 µM; in experiment [4], 2.71 µM; in experiment [5], 2.76 µM; in [6] it was 2.52 µM. The TGI in [7] came to 1.89 µM; in experiment [8], 2.85 µM; in experiment [9], 2.44 µM; in experiment [10], 2.8 µM.

For `CC1=C(C(=O)Nc2ccccc2)C(c2cc(Cl)cc(Cl)c2)C(C(=O)Nc2ccccc2)=C(C)N1`, the TGI in experiment [1] turned out to be 22.9 µM; in [2] it was 58.8 µM; in [3], 47.2 µM; in experiment [4], 41.3 µM; in experiment [5], 41.9 µM; in experiment [6], 31.6 µM. Moreover, the TGI in [7] stood at 19.1 µM; in experiment [8], 28.8 µM; in [9], 25.3 µM; in experiment [10], 27.5 µM.

On to `C/C(O)=C(\N=O)C(=O)NCc1ccccc1`, for which the TGI in experiment [1], in experiment [2], in [3], in [4], in [5] and in experiment [6] was above 100 µM in each case. Further, the TGI in experiment [7], in [8], in experiment [9] and in [10] was above 100 µM in each case.

In the case of `CCN(CC)c1nc(NC2CCCCC2)c2nc(N(CC)CC)nc(NC3CCCCC3)c2n1`, the TGI in experiment [1], in [2], in experiment [3], in experiment [4], in experiment [5] and in [6] was above 100 µM each time. Moreover, the TGI in [7], in experiment [8], in [9] and in [10] was above 100 µM throughout.

Source of the values: PubChem BioAssay (NCI).
